# Results taken from patent US20200383906A1 (Evestra, Inc., priority 2019, published 2020).
# “Also recorded” adds a separate entry of the source. Where two headings read alike, the source gives them in different places.
# Key:
# [1] = human, cited from earlier work
# [2] = young women, 2.0 and 4.0 mg orally; cited from earlier work
# SHBG = conditions: women, entire range of tested doses; cited from earlier work
# ovariectomized rodents = conditions: parenteral administration; cited from earlier work
# ovulation = experiment: Clinical study of vaginal rings: ovulation inhibition, follicular maturation; type: in vivo, women; conditions: used release rate of estriol alone
# Procedure: Testing of three vaginal ring prototypes (Device 1, Device 2, and Device 3, described above) in 12 women as preformed. The expected average release rate per day of each device is described in Table 2. Vaginal ring (VR) insertion was performed after pill cycle completion and menstrual bleeding. Observation of a VR over a period of 21 days. Follow-up after removal of the VR. All VR variants tested inhibit ovulation. Ovulation inhibition persisted for more than 7 days after removal of the rings. Signs of follicular maturation at the start of treatment (higher oestradiol levels) disappear during treatment. The effect reflects inhibition of follicular maturation. For the most part, there were no bleeding events during treatment at all and, where they did occur, only to a very small extent (“spotting”). Withdrawal bleeding was observed only after the highest trimegestone dosage.
# The course of the estradiol levels in the circulation reflects follicular maturation in the ovary. FIG. 5 depicts the individual serum concentrations of estradiol during single vaginal application of Device 3. […] After removal of the vaginal ring, the estradiol values increase starting from baseline. This increase reflects follicular maturation. […] FIG. 6 depicts the individual serum concentrations of progesterone during single vaginal application of Device 3. […]
# estrogen receptor ERß = estrogen receptor ERß (Homo sapiens, UniProt Q92731); conditions: cited from earlier work
# Chain of estrogen receptor ERß (Q92731 whole entry): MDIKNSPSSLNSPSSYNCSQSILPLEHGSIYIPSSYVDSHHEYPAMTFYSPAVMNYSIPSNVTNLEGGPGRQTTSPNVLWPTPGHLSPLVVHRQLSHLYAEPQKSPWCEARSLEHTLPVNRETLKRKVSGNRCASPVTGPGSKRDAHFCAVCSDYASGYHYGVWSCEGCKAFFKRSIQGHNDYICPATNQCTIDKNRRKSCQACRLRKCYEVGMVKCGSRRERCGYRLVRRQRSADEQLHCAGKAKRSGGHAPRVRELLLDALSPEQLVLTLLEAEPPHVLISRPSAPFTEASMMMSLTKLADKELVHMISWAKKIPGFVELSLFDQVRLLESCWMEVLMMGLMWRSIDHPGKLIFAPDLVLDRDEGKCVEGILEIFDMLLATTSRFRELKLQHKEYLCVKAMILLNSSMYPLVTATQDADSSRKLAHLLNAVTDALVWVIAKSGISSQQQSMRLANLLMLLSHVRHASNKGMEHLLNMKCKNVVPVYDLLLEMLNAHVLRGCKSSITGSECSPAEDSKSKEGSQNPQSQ
# ovine genital organs = experiment: Experiments in sheep: estrogenic effect of estriol under trimegestone; type: in vivo; conditions: on trimegestone
# Excerpt: This estrogenic effect in the genital tract in the presence of a progestogen leads to prevention of spotting and intermenstrual bleeding in humans. Such bleedings on the “pill” are an expression of an endometrial estrogen deficiency.
smiles,measurement,setting,value
"C#C[C@]1(O)CC[C@H]2[C@@H]3CCc4cc(O)ccc4[C@H]3CC[C@@]21C [EE, 17α-ethinyl estradiol]",Oral bioavailability,[1]; oral vs intravenous,about 40%
same,First pass effect,[1]; oral,60%
C[C@]12CC[C@@H]3c4ccc(O)cc4CC[C@H]3[C@@H]1CC[C@@H]2O [Estradiol-17ß],Oral bioavailability,[2],4.9+/−5%
C[C@]12CC[C@@H]3c4ccc(O)cc4CC[C@H]3[C@@H]1C[C@@H](O)[C@@H]2O [estriol],Changes in surrogate parameter SHBG,SHBG,no relevant changes were seen
same,Estrogenic potency compared with estradiol,ovariectomized rodents,about factor ten weaker
same,Levels of FSH and LH,ovulation,decreased
same,Binding with ERß compared with estradiol,estrogen receptor ERß,weaker and less stable binding
same,Estrogenic effect of estriol in the genital tract in the presence of trimegestone,ovine genital organs,is not inhibited; also recorded: are not attenuated
